Assay results reported in patent publication US20250127906A1, “SMALL-MOLECULE DEGRADERS OF CDK8 AND CDK19” (University of South Carolina, priority 2021, published 2025).

Experiments:
[1] = system: pS727 STAT1 and total STAT1; test: pS727 STAT1 and total STAT1 in CT26 tumors in Balb/c mice; format: in vivo; settings: oral gavage 20 mg/kg, 2, 8 or 24 hrs after dosing
Description: (§1) CT26 cells were injected subcutaneously into syngeneic Balb/c female mice and allowed to grow to 150˜200 mm^3. Tumor-bearing mice then received PROTACs IA7882 or IA7886 by oral gavage at 20 mg/kg in 30% propylene glycol/70% PEG-400 vehicle. Tumors were collected 2, 8 or 24 hrs after dosing and used to measure protein levels of CDK8, pS727 STAT1 and total STAT1 (by western blotting) and mRNA expression of CCL12, a gene that is inhibited by different CDK8/19 inhibitors in CT26 tumors in vivo (by QPCR).

CCL12 = CCL12 mRNA expression in CT26 tumors in Balb/c mice (QPCR); format: in vivo; settings: oral gavage 20 mg/kg, 2, 8 or 24 hrs after dosing
Description: as §1

[2] = Serum drug concentrations in CD-1 mice (LCMSMS); format: in vivo; settings: female CD-1 mice, i.p. 15 mg/kg, 15 min and 1 hr
Description: For preliminary evaluation of the bioavailability of the PROTACs, IA7882 and IA7886 were administered to female CD-1 mice via intraperitoneal (i.p.) injection at the dose of 15 mg/kg. Drug concentrations were measured by LCMSMS analysis of serum samples collected at 15 min and 1 hr time point.

CDK8 [3] = biological target: T1, CDK8 (Homo sapiens, UniProt P49336); test: CDK8 degradation in Loucy T-cell leukemia cells lacking Cyclin C; format: cell-based; design: endogenous in cells; host or cells: Loucy; settings: Loucy cells (lacking CCNC), 24 hr treatment
Description: (§2) This cell line, however, is unique in lacking Cyclin C (CCNC), the binding partner of CDK8/19. To test if the absence of CDK8-bound CCNC was responsible for the loss of IA7843 CDK8-degrading activity, we have tested the effect of IA7843 on a derivative of HEK-293cells with CRISPR-mediated knockout of CCNC.
Target sequence in this assay (P49336 whole entry): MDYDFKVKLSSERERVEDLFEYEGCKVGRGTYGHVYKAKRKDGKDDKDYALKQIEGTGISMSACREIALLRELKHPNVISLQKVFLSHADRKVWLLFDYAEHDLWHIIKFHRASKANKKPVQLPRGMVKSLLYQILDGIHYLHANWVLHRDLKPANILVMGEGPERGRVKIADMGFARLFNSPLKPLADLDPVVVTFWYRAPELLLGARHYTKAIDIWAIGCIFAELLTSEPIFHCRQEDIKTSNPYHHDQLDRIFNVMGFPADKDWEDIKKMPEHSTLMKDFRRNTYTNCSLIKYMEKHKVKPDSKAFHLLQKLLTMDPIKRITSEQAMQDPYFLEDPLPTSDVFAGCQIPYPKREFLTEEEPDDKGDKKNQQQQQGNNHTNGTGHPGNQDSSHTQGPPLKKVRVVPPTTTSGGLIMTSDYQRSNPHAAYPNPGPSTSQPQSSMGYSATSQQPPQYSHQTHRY

CDK19 [4] = biological target: T2, CDK19 (Homo sapiens, UniProt Q9BWU1); test: CDK19 degradation in Loucy T-cell leukemia cells lacking Cyclin C; format: cell-based; design: endogenous in cells; host or cells: Loucy; settings: Loucy cells (lacking CCNC), 24 hr treatment
Description: as §2
Target sequence in this assay (Q9BWU1 whole entry): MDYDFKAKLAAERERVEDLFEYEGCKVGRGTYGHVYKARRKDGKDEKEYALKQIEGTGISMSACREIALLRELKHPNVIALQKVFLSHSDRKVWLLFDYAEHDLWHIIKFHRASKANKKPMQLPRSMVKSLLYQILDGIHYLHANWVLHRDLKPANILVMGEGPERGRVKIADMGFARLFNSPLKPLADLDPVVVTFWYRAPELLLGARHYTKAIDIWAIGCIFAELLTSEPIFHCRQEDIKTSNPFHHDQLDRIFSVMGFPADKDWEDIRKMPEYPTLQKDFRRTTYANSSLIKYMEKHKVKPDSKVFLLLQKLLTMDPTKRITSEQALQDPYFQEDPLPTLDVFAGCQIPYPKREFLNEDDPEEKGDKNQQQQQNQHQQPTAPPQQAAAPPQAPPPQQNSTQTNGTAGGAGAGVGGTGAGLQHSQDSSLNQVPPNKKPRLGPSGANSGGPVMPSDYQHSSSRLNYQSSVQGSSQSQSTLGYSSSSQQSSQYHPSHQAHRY

CDK8 [5] = biological target: T1, CDK8; test: CDK8 degradation in HEK-293 cells (Western blot, normalized by GAPDH); format: cell-based; design: endogenous in cells; host or cells: HEK-293; settings: HEK-293 cells
How it was run: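 HEK-293 cells were treated for 24 h with or without compound, at 1 μM or 0.3 μM for single-point testing. RIPA lysates were immunoblotted for CDK8, and densitometry gave levels normalized to GAPDH. DC50 is the concentration that reduces CDK8 to half its level in untreated cells.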
Target sequence in this assay (P49336 whole entry): as the sequence (P49336 whole entry) above
Target sequence in this assay (P24863 whole entry partner): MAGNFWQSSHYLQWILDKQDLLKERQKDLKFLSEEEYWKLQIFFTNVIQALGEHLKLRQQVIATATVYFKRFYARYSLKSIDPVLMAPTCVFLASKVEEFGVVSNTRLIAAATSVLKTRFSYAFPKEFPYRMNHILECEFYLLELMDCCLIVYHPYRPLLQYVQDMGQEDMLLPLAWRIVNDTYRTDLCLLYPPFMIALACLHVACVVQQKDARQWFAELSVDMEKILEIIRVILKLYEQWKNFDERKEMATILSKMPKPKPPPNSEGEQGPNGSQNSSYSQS

CDK8 [6] = biological target: T3, CDK8 (Mus musculus, UniProt Q8R3L8); test: CDK8 protein level in CT26 tumors in Balb/c mice; format: in vivo; design: from tissue; host or cells: subcutaneous CT26 tumours in Balb/c female mice; settings: oral gavage 20 mg/kg, 2, 8 or 24 hrs after dosing
T3 sequence (Q8R3L8 1-464): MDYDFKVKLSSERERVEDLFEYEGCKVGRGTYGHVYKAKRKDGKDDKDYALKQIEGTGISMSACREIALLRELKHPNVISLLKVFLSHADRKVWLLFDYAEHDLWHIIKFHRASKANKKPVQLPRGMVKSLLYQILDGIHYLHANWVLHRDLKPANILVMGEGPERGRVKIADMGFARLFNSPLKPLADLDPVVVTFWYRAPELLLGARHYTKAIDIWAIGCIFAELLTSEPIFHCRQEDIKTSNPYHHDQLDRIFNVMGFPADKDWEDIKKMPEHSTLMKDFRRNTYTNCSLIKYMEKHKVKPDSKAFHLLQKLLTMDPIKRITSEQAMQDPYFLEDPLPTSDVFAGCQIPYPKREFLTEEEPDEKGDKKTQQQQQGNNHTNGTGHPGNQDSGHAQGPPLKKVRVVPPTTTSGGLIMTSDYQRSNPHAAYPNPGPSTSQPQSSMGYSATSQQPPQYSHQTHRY
T3 sequence (Q62447 1-283 partner): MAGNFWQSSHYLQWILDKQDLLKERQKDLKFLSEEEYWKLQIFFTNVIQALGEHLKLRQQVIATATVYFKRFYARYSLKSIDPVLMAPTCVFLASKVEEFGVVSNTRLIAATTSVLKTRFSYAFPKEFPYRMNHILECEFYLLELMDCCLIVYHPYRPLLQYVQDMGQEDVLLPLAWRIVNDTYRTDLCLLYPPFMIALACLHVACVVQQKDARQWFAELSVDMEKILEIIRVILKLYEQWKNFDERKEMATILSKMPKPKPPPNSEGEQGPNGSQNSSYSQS
Description: as §1

CDK19 [7] = biological target: T2, CDK19; test: CDK19 degradation in HEK-293 cells (Western blot); format: cell-based; design: PROTACs on CDK8 and CDK19 degradation in HEK-293cells; endogenous in cells; host or cells: HEK-293; settings: concentration degrading CDK19 to half of level in untreated cells
Description: Furthermore, the degradation of both CDK8 and CDK19 by the PROTACs is also seen to decrease the levels of their binding partner cyclin C (CCNC) (FIG. 2B, D, E), which is known to be protected from proteolytic degradation by its interaction with CDK8 (Barette et al., 2001).
FIGS. 2F and 2G show the effects of different concentrations of potent Senexin C- and BI-1347-based PROTACs on CDK8 and CDK19 degradation in HEK-293cells. Based on these assays, we calculated DC50 values that correspond to PROTAC concentrations inducing degradation of CDK8 and CDK19 to the half of protein level in untreated cells. The corresponding CDK8 DC50 values were 46 nM for IA7843, 6.6 nM for IA7882 and 2.8 nM for IA7886, and CDK19 DC50 values were 1 μM for IA7843, 25 nM for IA7882 and 10 nM for IA7886.
Target sequence in this assay (Q9BWU1 whole entry): as the sequence (Q9BWU1 whole entry) above
Target sequence in this assay (P24863 whole entry partner): as the sequence (P24863 whole entry partner) above

CDK8 [8] = biological target: T1, CDK8; test: CDK8 degradation in HEK-293 cells with CRISPR knockout of CCNC; format: cell-based; design: a derivative of HEK-293cells with CRISPR-mediated knockout of CCNC; endogenous in cells; host or cells: HEK-293 with CRISPR knockout of CCNC; settings: HEK-293 CCNC-knockout cells, 24 hr treatment
Description: as §2
Target sequence in this assay (P49336 whole entry): as the sequence (P49336 whole entry) above

CDK19 [9] = biological target: T2, CDK19; test: CDK19 degradation in HEK-293 cells with CRISPR knockout of CCNC; format: cell-based; design: a derivative of HEK-293cells with CRISPR-mediated knockout of CCNC; endogenous in cells; host or cells: HEK-293 with CRISPR knockout of CCNC; settings: HEK-293 CCNC-knockout cells, 24 hr treatment
Description: as §2
Target sequence in this assay (Q9BWU1 whole entry): as the sequence (Q9BWU1 whole entry) above

## O=C1CCC(N2C(=O)c3cccc(NCCOCCOCCOCCOCCC(=O)N4CCN(C(=O)Cn5cc(-c6ccc(-c7cncc8ccccc78)cc6)cn5)CC4)c3C2=O)C(=O)N1 (centres unmarked) [IA7882, 2-(2,6-dioxo-3-piperidyl)-4-[2-[2-[2-[2-[3-[4-[2-[4-[4-(4-isoquinolyl)phenyl]pyrazol-1-yl]acetyl]piperazin-1-yl]-3-oxo-propoxy]ethoxy]ethoxy]ethoxy]ethylamino]isoindoline-1,3-dione]
[1]
  pS727 STAT1 and total STAT1 in tumors: decreased in most of the tumors collected 2 hrs or 8 hrs after dosing
CCL12
  levels of CCL12 mRNA in tumors: decreased in tumors treated with IA7882 or IA7886 2 hrs or 8 hrs (but not 24 hrs) after dosing
[2]
  serum drug concentrations: readily measurable and were higher for IA7882 than for IA7886
CDK8 [3]
  CDK8 degradation (in words): efficiently degraded CDK8 and CDK19
CDK19 [4]
  CDK19 degradation (in words): efficiently degraded CDK8 and CDK19
CDK8 [5]; 24 hours, tested at 1 μM
  % CDK8 remaining: 12%
CDK8 [5]; concentration degrading CDK8 to half of level in untreated cells
  DC50: 0.0066 µM
CDK8 [6]
  CDK8 levels in tumor extracts: decreased in most of the tumor extracts collected 2 hrs or 8 hrs after dosing
CDK19 [7]
  DC50: 0.025 µM
CDK8 [8]
  CDK8 degradation (in words): efficiently degraded CDK8 and CDK19
CDK19 [9]
  CDK19 degradation (in words): efficiently degraded CDK8 and CDK19
